Values quoted from earlier work in PMC11211886 (Frontiers in Pharmacology, 2024).
Like-named read-outs stand apart in the source and are kept apart here.

What was measured:
P-gp = tested on: P-gp; design: method as in FDA, 2014; FDA, 2017; FDA, 2018; FDA, 2021; conditions: ref FDA, 2014, 2017, 2018, 2021; cited from earlier work
[1] = ref FDA, cited from earlier work
[2] = cited from earlier work; for incidence of ≥Grade 3 GI toxicity, including diarrhea and colitis: clinical trials, ref FDA, 2014, FDA, 2017, 2018, 2021

Row | Compound | P-gp substrate status (P-gp) | exposure in the intestines versus plasma [1]; 2017 [fold] | incidence of ≥Grade 3 GI toxicity, including diarrhea and colitis [2] | diarrhea, any-grade adverse event ([2]; ref Wang et al., 2023) [%] | diarrhea, grade ≥3 AE ([2]; ref Wang et al., 2023) [%] | exposure in the intestines versus plasma [1]; 2014 [fold] | exposure in the intestines versus plasma [1]; 2018 [fold] | diarrhea (TEAE) incidence ([2]; patients with indolent and aggressive lymphoma, phase II, ref Dreyling et al., 2017) [%]
1 | C[C@H](Nc1ncnc2[nH]cnc12)c1cc2cccc(Cl)c2c(=O)n1-c1ccccc1 [duvelisib, Duvelisib] | P-gp substrates | 100 | higher than 10% | 47 | 12 |  |  | 
2 | CC[C@H](Nc1ncnc2[nH]cnc12)c1nc2cccc(F)c2c(=O)n1-c1ccccc1 [idelalisib, Idelalisib] | P-gp substrates |  | higher than 10% |  |  | 50 |  | 
3 | COc1c(OCCCN2CCOCC2)ccc2c1N=C(NC(=O)c1cnc(N)nc1)N1CCN=C21 [copanlisib, Copanlisib] | P-gp substrates |  | higher than 10% |  |  |  | 190 | 40.5
